From US20050186274A1, “Multilayer tablet” (Boehringer Ingelheim International GmbH, priority 2004, published 2005)

Experiments:
[1] = physiological pH range of the gastrointestinal tract, pH 1 to 7; free acid form; cited from earlier work
[2] = Dissolution rate of HCTZ from tablet matrix; format: physicochemical; conditions: from a dissolving matrix as compared with dissolution from a disintegrating tablet

Row | dissolution rate of HCTZ [2] | SMILES | solubility in aqueous systems [1]
1 |  | CCCc1nc2c(C)cc(-c3nc4ccccc4n3C)cc2n1Cc1ccc(-c2ccccc2C(=O)O)cc1 [Telmisartan, 4′-[2-n-propyl-4-methyl-6-(1-methylbenzimidazol-2-yl)-benzimidazol-1-ylmethyl]-biphenyl-2-carboxylic acid] | very poor solubility
2 | reduced dissolution rate | NS(=O)(=O)c1cc2c(cc1Cl)NCNS2(=O)=O [HCTZ, 6-chloro-3,4-dihydro-2H-1,2,4-benzothiadiazine-7-sulfonamide-1,1-dioxide] | 
